Source: patent publication US20050049174A1, “Method and substance for facilitating weaning, reducing morbidity and reducing mortality in cardiac surgeries involving extra-corporal circulation” (priority 2003, published 2005)
“Also recorded” adds a separate entry of the source. Like-named read-outs stand apart in the source and are kept apart here. Marks after values point to notes of the source that are not given here.

Tests used:
[1] = test system: cardiac surgery patients; conditions: cited from earlier work; for Result: hemodynamic effects, amrinone vs milrinone: n 44, elective cardiac surgery, bolus amrinone 0.75 mg/kg or milrinone 25 μg/kg
[2] = test system: patients with pulmonary hypertension; conditions: inhaled milrinone; cited from earlier work
[3] = test system: coronary care unit patients hospitalized for an exacerbation of chronic heart failure; conditions: cited from earlier work
[4] = test system: rings of porcine pulmonary artery with endothelium; test: vascular reactivity studies in organ chambers after cardiopulmonary bypass; type: in vivo, Landrace swine; conditions: for KCL: amplitude of the contraction to KCl (60 mmol/L) / Dose PE: concentration of PE used to obtain 50% of contraction to KCl: mean +/- SEM
Experimental: After 60 minutes of reperfusion, swine were sacrificed and pulmonary arteries harvested. After contraction to phenylephrine, pulmonary arteries endothelium-dependent relaxations to bradykinin (Gq coupled) and acetylcholine (Gi coupled) were studied in standard organ chamber experiments.
Less than 10 minutes after “en bloc” excision, the heart was removed and the primary pulmonary artery was dissected. Branches of second degree pulmonary arteries were isolated and dissected free of connective and adventitial tissue and divided into rings (4 mm wide; 16 rings per animal). All rings were placed in organ chambers (Emka technologies Inc, Paris, France) filled with 20 mL modified Krebs-bicarbonate solution continuously heated at 37° C. and oxygenated with a carbogen mixture (95% O2 and 5% CO2). The rings were suspended between 2 metal stirrups with the upper 1 connected to an isometric force transducer connected to a signal amplifier and then allowed to stabilize for 30 minutes. Data were collected with a biological signal data acquisition software (IOX 1.700; Emka technologies Inc, Paris, France). Each arterial ring was stretched to the optimal point of its active length-tension curve (3.5 g) as determined by measuring the contraction to potassium chloride (KCl) 60 mmol/L at different levels of stretch (data not shown). The maximal contraction of rings was then obtained with addition of potassium chloride (KCl 60 mmol/L). After obtention of a plateau, all baths were washed twice with modified Krebs bicarbonate solution and indomethacin ([…]; to exclude production of endogenous prostanoids) was added in each bath. After 45 minutes of stabilisation, phenylephrine (range 2 {acute over} 10-7 mol/L to 3 {acute over} 10-6 mol/L) was added to obtain a contraction averaging 50% of the maximal contraction to KCl.
The NO-mediated relaxation pathway was studied by constructing concentration-response curves to acetylcholine (ACh, 10-9 to 10-5 mol/L; an agonist of M2 receptors coupled to Gi-proteins) and to bradykinin (BK, 10-12 to 10—6 mol/L; an agonist of B2 receptors coupled to Gq-proteins).
At the end of the experiment, endothelium-independent relaxations were studied with the use of 10-5 mol/L sodium nitroprusside (SNP), a nitric oxide donor
All values are expressed as the mean±standard error of the mean (SEM). Contractions to phenylephrine are expressed as a percentage of the maximal contraction to KCl (60 mmol/L). Relaxations are expressed as the percentage of the maximal contraction to phenylephrine for each ring. Two-way repeated analysis of variance (ANOVA) were performed to compare each point of the concentration-response curves between control rings and CPB rings. Student's t test for paired/unpaired observations was used for the comparison of the pulmonary artery pressures and the intravascular cAMP content. Statistical analysis was performed with the computer software S.A.S (Instr Inc. Cary, N.C., USA). A P-value less than 0.05 was considered statistically significant.

[5] = test system: porcine subjects undergoing cardiopulmonary bypass
[6] = test system: person in cardiogenic shock; test: inhaled milrinone in a person in cardiogenic shock (echocardiographic and hemodynamic monitoring); type: in vivo, human; conditions: 5 mg milrinone through inhalation
Excerpt: Finally, the cardiac index increased from 1.8 to 2.8 L.min/m^2.

[7] = intravenous; animal studies; cited from earlier work
[8] = test system: patient, mitral valve and tricuspid valve repair; test: inhaled prostacyclin prior to extra-corporal circulation in a patient; type: in vivo, human
Excerpt: This is to be contrasted with changes observed in Doppler hepatic venous flow after inhaled prostacyclin in a patient scheduled to undergo mitral valve and tricuspid valve repair. […] This was associated with a reduction in mean pulmonary artery pressure from 36 to 29 mmHg, pulmonary vascular resistance index from 589 to 267 dynes.s/cm^5/m^2 and an increase in cardiac index from 1.9 to 2.4 L/min/m^2. Heart rate and mean arterial pressure decreased respectively from 63 to 52 beats/min and from 76 to 64 mmHg.

[9] = test system: person operated under cardiopulmonary bypass; test: inhaled prostacyclin at weaning from bypass in a person; type: in vivo, human; conditions: weaned with inhaled prostacyclin (75 μg)
Experimental: In another case, a person was operated for a third time under cardiopulmonary bypass. […] Pre-operatively, they had abnormal right ventricular diastolic function with a lower systolic or S wave on the hepatic venous Doppler signal. After bypass (duration 157 min), they were weaned with inhaled prostacyclin (75 μg) and they left the operating room with noradrenaline at 2.5 μg/min and nitroglycerine at 0.4 μg/kg/min.

[10] = test system: heart transplant candidate; conditions: inhaled prostacyclin group; cited from earlier work
[11] = n 120, low CO after cardiac surgery

## [N]=O [NO, nitric oxide]
[1]; n 45, pulmonary hypertension, Group 3 40 ppm NO compared to group 1 (milrinone) and 2 (20 ppm NO)
  Result: right ventricular ejection fraction: Group 3 (40 ppm)higher right

## Nc1cc(-c2ccncc2)c[nH]c1=O [amrinone]
[1]
  Result: hemodynamic effects, amrinone vs milrinone: produced similar

## CC(CCc1ccc(O)cc1)NCCc1ccc(O)c(O)c1 (stereo not drawn) [dobutamine]
[1]; [11]
  Result: overall comparison milrinone and dobutamine: comparable
[1]; n 120, low CO after cardiac surgery, dobutamine 10 to 20 μg/kg/min vs milrinone
  Result: increases in cardiac index: group D had greater

## Cc1[nH]c(=O)c(C#N)cc1-c1ccncc1 [milrinone]
[2]
  pulmonary vascular resistance: reduce pulmonary vascular resistance; also recorded: lowered pulmonary vascular resistances
[3]; intravenous milrinone vs placebo
  median number of days hospitalized for cardiovascular causes within 60 days: no difference
[3]; intravenous milrinone, vs 2.3% placebo, P=0.19
  in-hospital mortality: 3.8%
[3]; intravenous milrinone, vs 8.9% placebo, P=0.41
  60-day mortality: 10.3%
[1]; n 32, LVEF ≦ 35%, PCWP ≧ 20 mmHg pre-bypass, bolus 50 ug/kg, perfusion 0.5 ug/kg/min, vs 5/15 placebo
  Result: wean from bypass: All patients with milrinone
[1]
  Result: hemodynamic effects, amrinone vs milrinone: produced similar
[1]; [11]
  Result: overall comparison milrinone and dobutamine: comparable
[1]; n 120, low CO after cardiac surgery, milrinone 50 μg/kg and perfusion 0.5 μg/kg/min vs dobutamine
  Result: decreases in mean pulmonary capillary wedge pressure: Group M had greater
[4]; Mil INH group
  KCL: amplitude of the contraction to KCl (60 mmol/L): 4.8 +/− 0.28
[4]; Mil INH group, p<0.01 vs intravenous milrinone, p<0.05 vs control
  Dose PE: concentration of PE used to obtain 50% of contraction to KCl: greater
[4]; Mil INH group, p<0.01 vs intravenous milrinone, p<0.05 vs control, listed as Mil INH
  Dose PE: concentration of PE used to obtain 50% of contraction to KCl: 8.3 +/− 0.93*,**
[4]; Mil IV group
  Dose PE: concentration of PE used to obtain 50% of contraction to KCl: 4.1 +/− 0.3
  KCL: amplitude of the contraction to KCl (60 mmol/L): 4.0 +/− 0.3
[4]; inhaled milrinone compared to all other groups, P<0.05, FIG. 10
  endothelium-dependent relaxation to BK: increased relaxation; also recorded: preventive effect
[4]; inhaled milrinone prior to CPB, FIG. 9
  CPB-induced decrease of endothelium-dependent relaxation to ACh: completely reversed; also recorded: preventive effect
[4]; intravenous milrinone, FIG. 10
  endothelium-dependent relaxation to BK: preventive effect on endothelial function: not seen
[5]; in vivo
  systemic vascular resistance after bolus: did not fall
[5]; in vivo, iv
  heart rate: increased
  systemic vascular resistance after bolus: important decrease
[5]; inhaled milrinone vs CPB, at 15, 45 and 75 minutes per CPB and 30 and 60 minutes post CPB, p<0.05, FIG. 6
  heart rate: significantly lower
[5]; inhaled milrinone, bolus of 60-90 mg/kg via nebulizer during 15 minutes preceding CPB, p<0.05, FIG. 2
  mean arterial pressure following administration of the bolus: significant decrease
[6]; decrease from 17
  right atrial pressure (RAP) after administration: 7 mm Hg
[6]; decrease from 33
  mean pulmonary arterial pressure after administration: 24 mm Hg
[6]; decrease from 92
  mean arterial pressure after administration: 77 mm Hg
[6]; increase from 72
  heart rate after administration: 84 beats/minutes

## CCCCC[C@H](O)/C=C/[C@@H]1[C@H]2C/C(=C/CCCC(=O)O)O[C@H]2C[C@H]1O [prostacyclin]
[7]
  half-life: 2 to 3 min
[8]
  vasoactive drugs used post-operatively: no vasoactive drugs used
[8]; cardiopulmonary bypass time of 138 min
  difficult separation from bypass: no difficult separation from bypass
[8]; decreased from 63
  heart rate: 52 beats/min
[8]; decreased from 76
  mean arterial pressure: 64 mmHg
[8]; increase from 1.9
  cardiac index: 2.4 L/min/m^2
[8]; negative value before, within 18 minutes
  Doppler hepatic venous flow systolic or S wave: became positive and less pronounced
[8]; reduction from 36
  mean pulmonary artery pressure: 29 mmHg
[8]; reduction from 589
  pulmonary vascular resistance index: 267 dynes.s/cm^5/m^2
[9]
  vasoactive drugs in the post-operative period: No vasoactive drugs were required
[9]; decreased from 78
  mean arterial pressure after bypass: 67 mmHg
[9]; increase from 2.3
  cardiac index after bypass: 3.3 L/min/m^2
[9]; increased from 66
  heart rate after bypass: 85 beats/min
[9]; reduction from 242
  pulmonary vascular resistance indexed after bypass: 121 dynes.s/cm^5/m^2
[9]; right ventricular diastolic waveform still abnormal
  hepatic venous flow signal: did not change significantly
[10]
  cardiac output increased by: 11%
